Assay results reported in patent US12660819B2, “Herbicidal derivatives” (SYNGENTA CROP PROTECTION AG, priority 2020, dated 2026).

How the values were obtained:
Format in all cases: in vivo
[1] = tested on: Amaranthus palmeri (AMAPA); assay: Post-emergence Test (glasshouse, percentage damage to the plant); details: 1000 g/ha unless otherwise stated, evaluated after 13 days; for AMAPA, percentage damage caused to the plant (five-point scale): post-emergence
Procedure, shortened: (§1)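 Compound formulated in 50:50 acetone/water with 0.5% Tween 20 was diluted to an aqueous spray and applied at 1000 g/ha, unless otherwise stated, onto sown pots. Evaluation after 13 days gave percentage damage, banded into a 1–5 score.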

[2] = tested on: Amaranthus retoflexus (AMARE); assay: as above; details: 1000 g/ha unless otherwise stated, evaluated after 13 days; for AMARE, percentage damage caused to the plant (five-point scale): post-emergence
Procedure, shortened: as §1

[3] = tested on: Echinochloa crus-galli (ECHCG); assay: as above; details: 1000 g/ha unless otherwise stated, evaluated after 13 days; for ECHCG, percentage damage caused to the plant (five-point scale): post-emergence
Procedure, shortened: as §1

[4] = tested on: Ipomoea hederacea (IPOHE); assay: as above; details: 1000 g/ha unless otherwise stated, evaluated after 13 days; for IPOHE, percentage damage caused to the plant (five-point scale): post-emergence
Procedure, shortened: (§2)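 Spray treatment of sown glasshouse pots at 1000 g/ha (default rate), vehicle acetone/water 50:50 plus 0.5% Tween 20. Read-out: percentage damage after 13 days, converted to a score where 5 denotes 81-100% and 1 denotes 0-20%.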

Setaria faberi (SETFA) [5] = assay: as above; details: 1000 g/ha unless otherwise stated, evaluated after 13 days; for SETFA, percentage damage caused to the plant (five-point scale): post-emergence
Procedure, shortened: as §2

Zea mays (ZEAMX) [6] = assay: as above; details: 1000 g/ha unless otherwise stated, evaluated after 13 days; for ZEAMX, percentage damage caused to the plant (five-point scale): post-emergence
Procedure, shortened: as §2

[7] = tested on: Amaranthus retoflexus (AMARE); assay: Pre-emergence Test (glasshouse, percentage damage to the plant); details: 1000 g/ha unless otherwise stated; for percentage damage to the plant, AMARE (five-point scale): Amaranthus retoflexus
Setaria faberi (SETFA) [8] = assay: as above; details: 1000 g/ha unless otherwise stated; for percentage damage to the plant, SETFA (five-point scale): Setaria faberi
[9] = tested on: Echinochloa crus-galli (ECHCG); assay: as above; details: 1000 g/ha unless otherwise stated; for percentage damage to the plant, ECHCG (five-point scale): Echinochloa crus-galli
[10] = tested on: Ipomoea hederacea (IPOHE); assay: as above; details: 1000 g/ha unless otherwise stated; for percentage damage to the plant, IPOHE (five-point scale): Ipomoea hederacea
Zea mays (ZEAMX) [11] = assay: as above; details: 1000 g/ha unless otherwise stated; for percentage damage to the plant, ZEAMX (five-point scale): Zea mays
[12] = tested on: Amaranthus palmeri (AMAPA); assay: as above; details: 1000 g/ha unless otherwise stated; for percentage damage to the plant, AMAPA (five-point scale): Amaranthus palmeri

Structure (SMILES): CCn1c(C)c(-c2ccc(F)cc2OC)c(=O)c(C(=O)OC)c1-c1ccc(Cl)c(Cl)c1 [Compound 163, methyl 2-(3,4-dichlorophenyl)-1-ethyl-5-(4-fluoro-2-methoxy-phenyl)-6-methyl-4-oxo-pyridine-3-carboxylate]
- Post-emergence Test AMAPA, percentage damage to the plant (five-point scale) ([1]; post-emergence spray): 2 (2=21-40%)
- Post-emergence Test AMARE, percentage damage to the plant (five-point scale) ([2]; post-emergence spray): 1 (1=0-20%)
- Post-emergence Test ECHCG, percentage damage to the plant (five-point scale) ([3]; post-emergence spray): 0
- Post-emergence Test IPOHE, percentage damage to the plant (five-point scale) ([4]; post-emergence spray): 0
- Post-emergence Test SETFA, percentage damage to the plant (five-point scale) (Setaria faberi (SETFA) [5]; post-emergence spray): 0
- Post-emergence Test ZEAMX, percentage damage to the plant (five-point scale) (Zea mays (ZEAMX) [6]; post-emergence spray): 0
- percentage damage to the plant, AMARE ([7]; five-point scale): 1 (1=0-20%)
- percentage damage to the plant, SETFA (Setaria faberi (SETFA) [8]; five-point scale): 0
- percentage damage to the plant, ECHCG ([9]; five-point scale): 0
- percentage damage to the plant, IPOHE ([10]; five-point scale): 0
- percentage damage to the plant, ZEAMX (Zea mays (ZEAMX) [11]; five-point scale): 1 (1=0-20%)
- percentage damage to the plant, AMAPA ([12]; five-point scale): 1 (1=0-20%)

Structure (SMILES): CCn1c(C)c(-c2cc(C(F)(F)F)ccc2F)c(=O)c(C(=O)O)c1-c1ccc(Cl)c(Cl)c1 [Compound 206, 2-(3,4-dichlorophenyl)-1-ethyl-5-[2-fluoro-5-(trifluoromethyl)phenyl]-6-methyl-4-oxo-pyridine-3-carboxylic acid]
- AMAPA, percentage damage caused to the plant (five-point scale) [1]: 4 (4=61-80%)
- AMARE, percentage damage caused to the plant (five-point scale) [2]: 4 (4=61-80%)
- ECHCG, percentage damage caused to the plant (five-point scale) [3]: 2 (2=21-40%)
- IPOHE, percentage damage caused to the plant (five-point scale) [4]: 2 (2=21-40%)
- SETFA, percentage damage caused to the plant (five-point scale) (Setaria faberi (SETFA) [5]): 4 (4=61-80%)
- ZEAMX, percentage damage caused to the plant (five-point scale) (Zea mays (ZEAMX) [6]): 1 (1=0-20%)
- percentage damage to the plant, AMARE (five-point scale) [7]: 2 (2=21-40%)
- percentage damage to the plant, SETFA (five-point scale) (Setaria faberi (SETFA) [8]): 5 (5=81-100%)
- percentage damage to the plant, ECHCG (five-point scale) [9]: 2 (2=21-40%)
- percentage damage to the plant, IPOHE (five-point scale) [10]: 3 (3=41-60%)
- percentage damage to the plant, ZEAMX (five-point scale) (Zea mays (ZEAMX) [11]): 0
- percentage damage to the plant, AMAPA (five-point scale) [12]: 4 (4=61-80%)

Structure (SMILES): CCn1c(C)c(-c2cccc(C(F)(F)F)c2F)c(=O)c(C(=O)O)c1-c1ccc(Cl)c(Cl)c1 [Compound 207, 2-(3,4-dichlorophenyl)-1-ethyl-5-[2-fluoro-3-(trifluoromethyl)phenyl]-6-methyl-4-oxo-pyridine-3-carboxylic acid]
- AMAPA, percentage damage caused to the plant (five-point scale) [1]: 3 (3=41-60%)
- AMARE, percentage damage caused to the plant (five-point scale) [2]: 3 (3=41-60%)
- ECHCG, percentage damage caused to the plant (five-point scale) [3]: 4 (4=61-80%)
- IPOHE, percentage damage caused to the plant (five-point scale) [4]: 4 (4=61-80%)
- SETFA, percentage damage caused to the plant (five-point scale) (Setaria faberi (SETFA) [5]): 4 (4=61-80%)
- ZEAMX, percentage damage caused to the plant (five-point scale) (Zea mays (ZEAMX) [6]): 3 (3=41-60%)
- percentage damage to the plant, AMARE (five-point scale) [7]: 3 (3=41-60%)
- percentage damage to the plant, SETFA (five-point scale) (Setaria faberi (SETFA) [8]): 5 (5=81-100%)
- percentage damage to the plant, ECHCG (five-point scale) [9]: 2 (2=21-40%)
- percentage damage to the plant, IPOHE (five-point scale) [10]: 3 (3=41-60%)
- percentage damage to the plant, ZEAMX (five-point scale) (Zea mays (ZEAMX) [11]): 1 (1=0-20%)
- percentage damage to the plant, AMAPA (five-point scale) [12]: 3 (3=41-60%)

Structure (SMILES): CCn1c(C)c(-c2ccc(Cl)cc2)c(=O)c(C(=O)O)c1-c1cnc(Cl)c(Cl)c1 [Compound 208, 5-(4-chlorophenyl)-2-(5,6-dichloro-3-pyridyl)-1-ethyl-6-methyl-4-oxo-pyridine-3-carboxylic acid]
- AMAPA, percentage damage caused to the plant (five-point scale) [1]: 4 (4=61-80%)
- AMARE, percentage damage caused to the plant (five-point scale) [2]: 4 (4=61-80%)
- ECHCG, percentage damage caused to the plant (five-point scale) [3]: 3 (3=41-60%)
- IPOHE, percentage damage caused to the plant (five-point scale) [4]: 2 (2=21-40%)
- SETFA, percentage damage caused to the plant (five-point scale) (Setaria faberi (SETFA) [5]): 5 (5=81-100%)
- ZEAMX, percentage damage caused to the plant (five-point scale) (Zea mays (ZEAMX) [6]): 4 (4=61-80%)
- percentage damage to the plant, AMARE (five-point scale) [7]: 1 (1=0-20%)
- percentage damage to the plant, SETFA (five-point scale) (Setaria faberi (SETFA) [8]): 2 (2=21-40%)
- percentage damage to the plant, ECHCG (five-point scale) [9]: 1 (1=0-20%)
- percentage damage to the plant, IPOHE (five-point scale) [10]: 2 (2=21-40%)
- percentage damage to the plant, ZEAMX (five-point scale) (Zea mays (ZEAMX) [11]): 0
- percentage damage to the plant, AMAPA (five-point scale) [12]: 5 (5=81-100%)

Structure (SMILES): CCn1c(C)c(-c2ccc(Cl)cc2Cl)c(=O)c(C(=O)O)c1-c1cnc(Cl)c(Cl)c1 [Compound 209, 5-(2,4-dichlorophenyl)-2-(5,6-dichloro-3-pyridyl)-1-ethyl-6-methyl-4-oxo-pyridine-3-carboxylic acid]
- AMAPA, percentage damage caused to the plant (five-point scale) [1]: 5 (5=81-100%)
- AMARE, percentage damage caused to the plant (five-point scale) [2]: 5 (5=81-100%)
- ECHCG, percentage damage caused to the plant (five-point scale) [3]: 5 (5=81-100%)
- IPOHE, percentage damage caused to the plant (five-point scale) [4]: 4 (4=61-80%)
- SETFA, percentage damage caused to the plant (five-point scale) (Setaria faberi (SETFA) [5]): 5 (5=81-100%)
- ZEAMX, percentage damage caused to the plant (five-point scale) (Zea mays (ZEAMX) [6]): 4 (4=61-80%)
- percentage damage to the plant, AMARE (five-point scale) [7]: 5 (5=81-100%)
- percentage damage to the plant, SETFA (five-point scale) (Setaria faberi (SETFA) [8]): 4 (4=61-80%)
- percentage damage to the plant, ECHCG (five-point scale) [9]: 4 (4=61-80%)
- percentage damage to the plant, IPOHE (five-point scale) [10]: 1 (1=0-20%)
- percentage damage to the plant, ZEAMX (five-point scale) (Zea mays (ZEAMX) [11]): 0
- percentage damage to the plant, AMAPA (five-point scale) [12]: 5 (5=81-100%)

Structure (SMILES): CCn1c(C)c(-c2ccc(F)cc2F)c(=O)c(C(=O)O)c1-c1cnc(Cl)c(Cl)c1 [Compound 210, 2-(5,6-dichloro-3-pyridyl)-5-(2,4-difluorophenyl)-1-ethyl-6-methyl-4-oxo-pyridine-3-carboxylic acid]
- AMAPA, percentage damage caused to the plant (five-point scale) [1]: 4 (4=61-80%)
- AMARE, percentage damage caused to the plant (five-point scale) [2]: 5 (5=81-100%)
- ECHCG, percentage damage caused to the plant (five-point scale) [3]: 4 (4=61-80%)
- IPOHE, percentage damage caused to the plant (five-point scale) [4]: 3 (3=41-60%)
- SETFA, percentage damage caused to the plant (five-point scale) (Setaria faberi (SETFA) [5]): 4 (4=61-80%)
- ZEAMX, percentage damage caused to the plant (five-point scale) (Zea mays (ZEAMX) [6]): 3 (3=41-60%)
- percentage damage to the plant, AMARE (five-point scale) [7]: 3 (3=41-60%)
- percentage damage to the plant, SETFA (five-point scale) (Setaria faberi (SETFA) [8]): 2 (2=21-40%)
- percentage damage to the plant, ECHCG (five-point scale) [9]: 1 (1=0-20%)
- percentage damage to the plant, IPOHE (five-point scale) [10]: 0
- percentage damage to the plant, ZEAMX (five-point scale) (Zea mays (ZEAMX) [11]): 0
- percentage damage to the plant, AMAPA (five-point scale) [12]: 4 (4=61-80%)

Structure (SMILES): CCn1c(C)c(-c2ccc(F)cc2F)c(=O)c(C(=O)OC)c1-c1cnc(Cl)c(Cl)c1 [Compound 213, methyl 2-(5,6-dichloro-3-pyridyl)-5-(2,4-difluorophenyl)-1-ethyl-6-methyl-4-oxo-pyridine-3-carboxylate]
- AMAPA, percentage damage caused to the plant (five-point scale) [1]: 3 (3=41-60%)
- ECHCG, percentage damage caused to the plant (five-point scale) [3]: 0
- IPOHE, percentage damage caused to the plant (five-point scale) [4]: 1 (1=0-20%)
- SETFA, percentage damage caused to the plant (five-point scale) (Setaria faberi (SETFA) [5]): 0
- ZEAMX, percentage damage caused to the plant (five-point scale) (Zea mays (ZEAMX) [6]): 1 (1=0-20%)
- percentage damage to the plant, AMARE (five-point scale) [7]: 0
- percentage damage to the plant, SETFA (five-point scale) (Setaria faberi (SETFA) [8]): 0
- percentage damage to the plant, ECHCG (five-point scale) [9]: 0
- percentage damage to the plant, IPOHE (five-point scale) [10]: 0
- percentage damage to the plant, ZEAMX (five-point scale) (Zea mays (ZEAMX) [11]): 0
- percentage damage to the plant, AMAPA (five-point scale) [12]: 0

Structure (SMILES): CCn1c(C)c(-c2ccc(Cl)cc2F)c(=O)c(C(=O)OC)c1-c1cnc(Cl)c(Cl)c1 [Compound 282, methyl 5-(4-chloro-2-fluoro-phenyl)-2-(5,6-dichloro-3-pyridyl)-1-ethyl-6-methyl-4-oxo-pyridine-3-carboxylate]
- AMAPA, percentage damage caused to the plant (five-point scale) [1]: 4 (4=61-80%)
- AMARE, percentage damage caused to the plant (five-point scale) [2]: 4 (4=61-80%)
- ECHCG, percentage damage caused to the plant (five-point scale) [3]: 4 (4=61-80%)
- IPOHE, percentage damage caused to the plant (five-point scale) [4]: 2 (2=21-40%)
- SETFA, percentage damage caused to the plant (five-point scale) (Setaria faberi (SETFA) [5]): 1 (1=0-20%)
- ZEAMX, percentage damage caused to the plant (five-point scale) (Zea mays (ZEAMX) [6]): 3 (3=41-60%)
- percentage damage to the plant, AMARE (five-point scale) [7]: 3 (3=41-60%)
- percentage damage to the plant, SETFA (five-point scale) (Setaria faberi (SETFA) [8]): 1 (1=0-20%)
- percentage damage to the plant, ECHCG (five-point scale) [9]: 1 (1=0-20%)
- percentage damage to the plant, IPOHE (five-point scale) [10]: 0
- percentage damage to the plant, AMAPA (five-point scale) [12]: 4 (4=61-80%)
